Data published in US20240133870A1, “COMBINED TREATMENT FOR CANCER” (Yeda Research and Development Co. Ltd., priority 2021, published 2024).

How the values were obtained:
Format in all cases: cell-based, human
H1975 xenografts = assay: EVOC viability; conditions: afatinib 3-4 μM
Experimental: Vehicle—DMSO, FGFRi—AZD4547 2-4 μM, INSRi—linsitinib 2 μM, METi—crizotinib 2-4 μM, EGFRi—afatinib 3-4 μM. Each black dot in a given treatment condition represents a different tumor. P-values were calculated by two-sided t-test. ** P<0.01, * P<0.05. Error bars represent standard error. […] Viability percentage is given per treatment combination. Scale bar represents 50 μm. […] Error bars represent standard error. […] EGFRi—gefitinib 1.6 μM, FGFRi—AZD4547 0.2 μM. The percentage of viable cancer cells was morphologically assessed on H&E stained sections by a pathologist as the ratio between viable cancer cell area and total cancer area (viable cancer cells plus necrotic cancer cells). […] Viability score was calculated based on the entire field of view. […]
Immunohistochemistry of EVOC tissues: To assess response therapy, 4 μm FFPE tissue slices were stained with H&E, or with specific antibodies: anti-pERK (Cell Signaling, #4370) followed by HRP conjugated secondary antibody (anti-Rabbit HRP, ZUC032, ZytoChem) and DAB staining (DAB substrate kit, DAB057, ZytoChem). […] All slides were scanned using the Pannoramic SCAN II (3[sequence]) and analyzed by a pathologist. The percentage of viable cancer cells was morphologically assessed on H&E stained sections by a pathologist as the ratio between viable cancer cell area and total cancer area (viable cancer cells plus necrotic cancer cells).

[1] = tested on: HT-29 orthotopic xenograft colorectal tumors; assay: EVOC of orthotopic colon tumors, pERK and H&E/BrDu; conditions: lapatinib 4 μM combined with BRAFi (vemurafenib 4 μM)
Excerpt: 500-700 μmm^3 tumors were resected, sliced, and cultured ex-vivo. Following 4 days of drug treatment, slices were fixed and embedded in paraffin blocks. FFPE slices were stained by H&E, and the percentage of viable cancer cells was morphologically assessed on H&E stained sections by a pathologist as the ratio between viable cancer cell area and total cancer area (viable cancer cells plus necrotic cancer cells). […] Each black dot in a given treatment condition represents a different tumor. P-values were calculated by two-sided t-test. *** P<0.001 ** P<0.01. Error bars represent standard error. […] Names of the six secreted factors with the highest rScore are shown. Factors related to TNF pathways are marked in gray. Results represent the average of at least two experiments. […] Cohort size pre-treatment: 5-6, P-values of the difference on the last day of experiment were calculated by one-sided Mann-Whitney test. * P<0.05. […] Viability percentage was calculated based on the entire field of view per treatment combination. […] FFPE slices were stained by pERK and pERK activity was assessed by a pathologist. […]
For the ex-vivo experiments EVOCs from immunocompromised mice bearing human tumors were generated, as further described hereinbelow. For the in-vivo validation experiments, mice bearing subcutaneous tumors were used; and response was measured by evaluating tumor volume. […]

pERK in G361 cell line = assay: In-cell western blot of pERK; conditions: G361 cells treated with the BRAF inhibitor (vemurafenib 2 μM and trametinib 1 nM)
Experimental: PLX4720—BRAFi, 2 μM; PD184352—MEKi, 1 μM, EMAPII—50 ng/ml. P-value of the difference between GFP(drug)/GFP(no-treatment) and GFP(drug+EMAPII)/GFP(no-treatment), at day 7, was calculated by two-sided t-test. ** p<0.01, *** p<0.001. Average rScore (+/−SE) was calculated from at least four different experiments. […] A total of 69 experiments are shown. […] The effect of FGF2 (10 ng/ml), EMAPII (10 ng/ml) or AIMP1 (10 ng/ml) on G361 μmelanoma cells treated with vemurafenib (2 μM) was measured with or without the FGFR inhibitor PD17307 (0.5 μM). Data represent an average of 4 to 8 experiments. P-value was calculated by two-sided t-test. *** p<0.001. Error bars represent standard error. […] P-values were calculated by two-sided t-test relative to luciferase. * p<0.05, Q-value=0.1. […] P-value was calculated by two-sided t-test. *** p<0.001.
In-cell western blot—To validate that EMAPII mediates its effect on resistance to BRAF inhibition via the FGF receptors (FIG. 2G), the melanoma BRAF mutated cell line G361 was seeded in a 384-wells plate at a concentration of 16,000 cells per well. […] Finally, the plate was scanned with Odyssey (Li-cor) using microplate settings (169 μm, […]), and fluorescence intensity was quantified and normalized to the DRAQ level, and then to no drug control (DMSO).

[2] = tested on: BRAF (V600E) melanoma cell lines; assay: High-throughput secretome screen of GFP-labeled cells (rScore, bScore, ranks); conditions: G361 and SK-MEL-5; PLX4720 2 μM, PD184352 1 μM, EMAPII 50 ng/ml
Experimental: Cell lines—All cell lines (Table 1 hereinbelow) were cultured in DMEM supplemented with 100 units/ml Penicillin and Streptomycin, 2 μmM Glutamine, 1 μmM Pyruvate and 10% FCS, and maintained in a humidified incubator at 37° C. and 5% CO2. Cells were routinely tested for Mycoplasma contamination by PCR. To generate stable cell lines constitutively expressing GFP, cells were infected with lentivirus bearing plasmid pLEX_TRC206 and sorted by FACS to enrich for GFP positive population. For the in-vitro experiments, human cancer cell lines which constitutively expressed GFP were treated with various cytotoxic and targeted drugs (see Table 1 hereinbelow); and the effect of different secreted factors (Table 2 hereinbelow) on the innate resistance to a drug based on the cells' GFP level was determined.
High throughput in-vitro screens—For high-throughput screens or drug dose curves, cells were counted by Vi-Cell XR (Beckman coulter). Cells were seeded on 384 wells plates (Corning, 3712) using the EL406 washer dispenser (BioTek). Liquid handling of medium and drugs was effected by CyBi (WellFlex vario, CyBio). GFP fluorescence of cells was measured at 477/517 nm (excitation/emission) using Cytation3 (BioTek). Due to fluorescence reading bias at plate margins and corners, these margins were discarded for analysis.
High-throughput secretome screens—To screen for the effect of secreted factors on the response of cell lines to different drugs, the following seven-days procedure was performed. On day 0, GFP expressing cells were seeded at 1500-2000 cells per well on 384-wells plates (Corning, 3712), depending on the cell line's proliferation rate. Each plate was seeded with one cell line. At day 1, each plate was treated with the secretome library (Table 2 hereinabove), one well per factor. Immediately afterwards, each plate was treated either with a drug (Table 1 hereinabove) at the EC90 concentration or with DMSO control. The CyBi liquid handler was used to treat each plate with a drug and the secretome library as well as to replace the medium, drug and secreted factors following 3 days of incubation (day 4). Cell fluorescence was read at days 1, 4 and 7 by Cytation3, and for some of the experiments at day 6 as well. Wells of interest were imaged at day 7 using the Operetta (PerkinElmer).
(2) Based on observations, the plate area spanning rows 4-13 and columns 4-21 was hardly affected by plate margins biases. This area is referred to herein as plate core. To control for row specific and column specific biases, plate outliers (Zscore>4 or Zscore<−4) and edges were masked. Next, to capture row and column (col) biases for the i-th row and the j-th column, the bias factor was calculated:
Upon QC completion, 199 experiment plates and 79 control (DMSO) plates were left for further analysis. • 4—Scoring methods-A GFP value for wells without secretome factors was obtained by averaging over the plate internal control wells. Those wells contained the solvents used in the secretome library. pScore: The effect of the secreted factors on proliferation under DMSO was evaluated using pScore (proliferation score). Values were given in percent units.
rScore: The effect of the secreted factors on resistance to anti-cancer drugs was evaluated using rScore (rescue score). rScore was assigned to a given factor under two conditions: • 1. drug effect was >30% (residual drug growth<0.7) • 2. proliferation ratio between factor treated and untreated cells in the presence of drug was higher than one:
rSscore=S−S*residual drug growth
Based on manual inspection of the rScore distribution across the data, the threshold for a potential effect on drug resistance was set to 0.2 (FIGS. 8A-D).
(*) Negative values were considered as zero. […] Groups with less than 4 experiments were discarded, finally resulting in 13 groups of experiments (FIG. 1E). […]

For `CN(C)C/C=C/C(=O)Nc1cc2c(Nc3ccc(F)c(Cl)c3)ncnc2cc1O[C@H]1CCOC1` [afatinib], the “decrease of viability of cancer cells, on average” value (H1975 xenografts) was 28%.

In the case of `CS(=O)(=O)CCNCc1ccc(-c2ccc3ncnc(Nc4ccc(OCc5cccc(F)c5)c(Cl)c4)c3c2)o1` [lapatinib], the “downstream pERK signaling” value [1] is reported as “completely blocked pERK signaling”.

B1: EMAPII: endothelial-monocyte activating polypeptide II, C-terminus variant of AIMP1 (protein, UniProt Q12904 147-312, looked up)
Endothelial …: SKPIDVSRLDLRIGCIITARKHPDADSLYVEEVDVGEIAPRTVVSGLVNHVPLEQMQNRMVILLCNLKPAKMRGVLSQAMVMCASSPEKIEILAPPNGSVPGDRITFDAFPGEPDKELNPKKKIWEQIQPDLHTNDECVATYKGVPFEVKGKGVCRAQTMSNSGIK
modifications: Endothelial monocyte-activating polypeptide 2
In the case of B1, the pERK reactivation (pERK in G361 cell line) is reported as “partially reactivate pERK” and the “effect on sensitivity to BRAF/MEK inhibition” value [2] is reported as “conferred resistance to BRAF and MEK inhibition”.
